We go through two compounds from ChEMBL document CHEMBL1158301, “Isolation of guaianoid pigments from the gorgonian Calicogorgia granulosa” (1996).

Common to all, as to type: functional
Common to all, as to conditions: read-out: IZ

One test concerns Escherichia coli. Briefly: Antimicrobial activity against Escherichia coli at 25 ug/mL by paper disk assay.
Another test relates to Bacillus subtilis. The test is described as follows: Antimicrobial activity against Bacillus subtilis at 25 ug/mL by paper disk assay.
A further test concerns Candida albicans. Briefly: Antimicrobial activity against Candida albicans at 25 ug/mL by paper disk assay.

On to `Cc1cc(-c2cc(C)c3cc(C(C)C)ccc(C)c2-3)c2c(C)ccc(C(C)C)cc1-2`, for which the figures for the zone of inhibition at 25 µg/mL in the test on Escherichia coli, in the test on Bacillus subtilis and in the test with Candida albicans were 3 mm, 8 mm and 5 mm, respectively.

As for `Cc1cc(Cc2cc(C)c3cc(C(C)C)ccc(C)c2-3)c2c(C)ccc(C(C)C)cc1-2`, the zone of inhibition at 25 µg/mL with Escherichia coli and in the test with Bacillus subtilis was 3 mm each time.
